Tests used:
[1] = Cytotoxicity against mouse Ba/F3 EGFR-Del19/T790M/C797S cells assessed as cell growth inhibition measured after 72 hrs by CellTiter-Glo luminescent assay; type: functional, cell-based
[2] = biological target: Epidermal growth factor receptor (Homo sapiens, UniProt P00533, C797S/EX19DEL/T790M); assay: Inhibition of EGFR Del19/T790M/C797S triple mutant (unknown origin) using TK as substrate incubated for 120 mins in presence of ATP by HTRF assay
PC-9 [3] = assay: Antitumor activity against human PC-9 cells harboring EGFR Del19/T790M/C797S triple mutant xenografted in NOD/SCID mouse assessed as tumor growth inhibition at 30 mg/kg, po administered once a day for 21 consecutive days and measured twice a week relative to control; type: functional; conditions: PC-9, 504 h, time 21 day, read-out: TGI
[4] = Antitumor activity against mouse Ba/F3 EGFR-Del19/T790M/C797S cells xenografted in BALB/c nude mouse assessed as tumor growth inhibition at 15 mg/kg, po administered once a day for 14 consecutive days and measured twice a week relative to control; type: functional; conditions: 336 h, time 14 day, read-out: TGI
[5] = Cmax in BALB/c mouse at 5 mg/kg, po measured upto 24 hrs by LC-MS/MS analysis; type: ADME, organism-based; design: dose 5 mg/kg, time < 24 hrs, route po; conditions: in vivo
PC-9 [6] = assay: Antitumor activity against human PC-9 cells harboring EGFR Del19/T790M/C797S triple mutant xenografted in NOD/SCID mouse assessed as tumor growth inhibition at 15 mg/kg, po administered once a day for 21 consecutive days and measured twice a week relative to control; type: functional; conditions: PC-9, 504 h, time 21 day, read-out: TGI
[7] = Antitumor activity against mouse Ba/F3 EGFR-Del19/T790M/C797S cells xenografted in BALB/c nude mouse assessed as tumor growth inhibition at 30 mg/kg, po administered once a day for 14 consecutive days and measured twice a week relative to control; type: functional; conditions: 336 h, time 14 day, read-out: TGI
[8] = MRT in BALB/c mouse at 5 mg/kg, po measured upto 24 hrs by LC-MS/MS analysis; type: ADME, organism-based; conditions: in vivo
[9] = Half life in BALB/c mouse at 5 mg/kg, po measured upto 24 hrs by LC/MS-MS analysis; type: ADME, organism-based; conditions: in vivo
[10] = AUC (0 to infinity) in BALB/c mouse at 5 mg/kg, po measured upto 24 hrs by LC/MS-MS analysis; type: ADME, organism-based; design: time < 24 hrs, dose 5 mg/kg, route po; conditions: in vivo
[11] = AUC (0 to t) in BALB/c mouse at 5 mg/kg, po measured upto 24 hrs by LC-MS/MS analysis; type: ADME, organism-based; design: time < 24 hrs, dose 5 mg/kg, route po; conditions: in vivo
[12] = biological target: Epidermal growth factor receptor (Homo sapiens, UniProt P00533, C797S/L858R/T790M); assay: Inhibition of EGFR L858R/T790M/C797S triple mutant (unknown origin) using TK as substrate incubated for 120 mins in presence of ATP by HTRF assay
[13] = biological target: Epidermal growth factor receptor (Homo sapiens, UniProt P00533); assay: Inhibition of wild type EGFR (unknown origin) using TK as substrate incubated for 120 mins in presence of ATP by HTRF assay
A-431 = assay: Cytotoxicity against human A-431 cells assessed as cell growth inhibition incubated for 72 hrs by CellTiter-Glo luminescent assay; type: functional, cell-based; conditions: A-431, 72 h

Epidermal growth factor receptor (Homo sapiens, UniProt P00533, C797S/L858R/T790M), sequence (P00533 25-1210 T790M/C797S/L858R limits assumed): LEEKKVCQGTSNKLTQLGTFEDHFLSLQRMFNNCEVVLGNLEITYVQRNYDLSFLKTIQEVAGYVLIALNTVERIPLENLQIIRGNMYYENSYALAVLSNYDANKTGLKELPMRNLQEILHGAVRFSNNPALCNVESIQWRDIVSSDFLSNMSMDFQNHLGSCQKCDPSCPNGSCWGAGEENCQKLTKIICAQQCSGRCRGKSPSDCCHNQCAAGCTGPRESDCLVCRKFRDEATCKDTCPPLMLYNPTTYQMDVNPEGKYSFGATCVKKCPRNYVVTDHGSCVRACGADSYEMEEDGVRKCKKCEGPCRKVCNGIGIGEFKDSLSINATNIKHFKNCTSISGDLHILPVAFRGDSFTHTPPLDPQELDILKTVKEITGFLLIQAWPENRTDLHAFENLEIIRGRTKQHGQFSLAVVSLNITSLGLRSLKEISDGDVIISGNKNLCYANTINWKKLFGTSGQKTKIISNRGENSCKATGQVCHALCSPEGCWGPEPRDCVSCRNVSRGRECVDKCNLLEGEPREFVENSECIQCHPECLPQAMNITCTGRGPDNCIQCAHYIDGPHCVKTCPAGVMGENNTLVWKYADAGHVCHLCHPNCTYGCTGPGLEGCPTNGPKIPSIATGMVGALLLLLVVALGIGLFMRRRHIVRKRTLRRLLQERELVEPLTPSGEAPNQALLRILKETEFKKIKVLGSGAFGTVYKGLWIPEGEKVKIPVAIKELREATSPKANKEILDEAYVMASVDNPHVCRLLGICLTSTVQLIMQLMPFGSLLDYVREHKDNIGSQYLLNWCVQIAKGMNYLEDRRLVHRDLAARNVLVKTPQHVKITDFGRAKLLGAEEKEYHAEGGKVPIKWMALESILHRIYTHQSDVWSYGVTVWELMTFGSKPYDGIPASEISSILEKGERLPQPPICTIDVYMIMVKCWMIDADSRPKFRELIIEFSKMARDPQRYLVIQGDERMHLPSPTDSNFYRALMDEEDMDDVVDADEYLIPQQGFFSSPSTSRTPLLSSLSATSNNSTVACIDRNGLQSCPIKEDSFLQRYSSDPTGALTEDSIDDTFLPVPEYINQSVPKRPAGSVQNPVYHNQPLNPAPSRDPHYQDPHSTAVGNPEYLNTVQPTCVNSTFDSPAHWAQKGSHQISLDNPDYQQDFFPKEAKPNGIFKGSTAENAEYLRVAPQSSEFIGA
Epidermal growth factor receptor (Homo sapiens, UniProt P00533, C797S/EX19DEL/T790M), sequence (P00533 whole entry, looked up, stated change not applied): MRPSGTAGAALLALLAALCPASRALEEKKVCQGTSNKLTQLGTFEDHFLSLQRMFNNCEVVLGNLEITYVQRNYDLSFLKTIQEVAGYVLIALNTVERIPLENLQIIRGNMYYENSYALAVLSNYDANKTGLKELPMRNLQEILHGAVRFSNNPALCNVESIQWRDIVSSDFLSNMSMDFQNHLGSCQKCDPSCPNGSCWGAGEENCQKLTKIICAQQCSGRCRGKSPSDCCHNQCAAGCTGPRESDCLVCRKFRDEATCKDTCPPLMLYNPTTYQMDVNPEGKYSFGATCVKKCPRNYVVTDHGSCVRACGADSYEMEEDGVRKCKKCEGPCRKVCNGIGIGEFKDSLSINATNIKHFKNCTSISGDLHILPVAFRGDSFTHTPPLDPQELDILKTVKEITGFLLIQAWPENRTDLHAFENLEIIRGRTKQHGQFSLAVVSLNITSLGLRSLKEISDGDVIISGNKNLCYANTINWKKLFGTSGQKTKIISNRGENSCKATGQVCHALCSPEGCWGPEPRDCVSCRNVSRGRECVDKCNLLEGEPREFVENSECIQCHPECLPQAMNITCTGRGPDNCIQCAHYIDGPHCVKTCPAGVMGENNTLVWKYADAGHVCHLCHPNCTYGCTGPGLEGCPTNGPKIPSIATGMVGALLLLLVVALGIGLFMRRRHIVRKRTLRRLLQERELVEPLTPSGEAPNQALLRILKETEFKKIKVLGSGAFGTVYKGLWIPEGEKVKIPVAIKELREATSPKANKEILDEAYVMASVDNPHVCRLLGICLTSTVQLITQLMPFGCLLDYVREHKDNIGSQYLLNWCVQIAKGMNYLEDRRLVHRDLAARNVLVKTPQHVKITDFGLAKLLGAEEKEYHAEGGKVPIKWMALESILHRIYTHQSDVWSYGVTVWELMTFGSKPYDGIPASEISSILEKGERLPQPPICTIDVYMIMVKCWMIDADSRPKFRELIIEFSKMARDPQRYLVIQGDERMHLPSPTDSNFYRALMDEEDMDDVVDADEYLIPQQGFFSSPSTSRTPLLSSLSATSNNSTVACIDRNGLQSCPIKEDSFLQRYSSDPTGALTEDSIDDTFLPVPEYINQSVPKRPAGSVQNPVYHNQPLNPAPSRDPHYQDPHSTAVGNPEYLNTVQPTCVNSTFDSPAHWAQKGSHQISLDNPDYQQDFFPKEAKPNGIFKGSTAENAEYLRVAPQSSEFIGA
Epidermal growth factor receptor (Homo sapiens, UniProt P00533), sequence (P00533 whole entry): as the sequence (P00533 whole entry, looked up, stated change not applied) above

SMILES	IC50 [2]	IC50 [12]	IC50 [13]	IC50 [1]	further results
CCOC1CN(C2CCN(c3cc(OC)c(Nc4ncc(Br)c(Nc5ccc6nccnc6c5P(C)(C)=O)n4)cc3C)CC2)C1	0.65 nM	–	–	29 nM	–
CCc1cc(Nc2ncc(Br)c(Nc3ccc4nccnc4c3P(C)(C)=O)n2)c(OC)cc1N1CCC(N2CC(N(C)C)C2)CC1	0.11 nM	–	–	16.3 nM	–
COc1cc(N2CCC(N3CC(N(C)C)C3)CC2)c(C)cc1Nc1ncc(Br)c(Nc2ccc3nccnc3c2P(C)(C)=O)n1	0.06 nM	–	–	12.7 nM	inhibition in vivo at 30 mg/kg (PC-9 [3]): 46.8%; inhibition in vivo at 15 mg/kg [4]: 48.4%; Cmax [5]: 1570 ng/mL; inhibition in vivo at 15 mg/kg (PC-9 [6]): 21.6%; inhibition in vivo at 30 mg/kg [7]: 82.6%; MRT [8]: 6 h; half-life [9]: 3.5 h; AUC(0-inf) [10]: 15600 ng·h/mL; AUC(0-t) at 24 h [11]: 15400 ng·h/mL
COc1cc(N2CCC(N3CC(C)(CO)C3)CC2)c(C)cc1Nc1ncc(Br)c(Nc2ccc3nccnc3c2P(C)(C)=O)n1	0.06 nM	0.15 nM	–	17.7 nM	–
COc1cc(N2CCC(N3CC(CC#N)C3)CC2)c(C)cc1Nc1ncc(Br)c(Nc2ccc3nccnc3c2P(C)(C)=O)n1	0.33 nM	0.12 nM	461 nM	12.7 nM	Cmax [5]: 1270 ng/mL; MRT [8]: 5.12 h; half-life [9]: 3.1 h; AUC(0-inf) [10]: 11200 ng·h/mL; AUC(0-t) at 24 h [11]: 11200 ng·h/mL
COc1cc(N2CCC(N3CC(C(C)(C)O)C3)CC2)c(C)cc1Nc1ncc(Br)c(Nc2ccc3nccnc3c2P(C)(C)=O)n1	0.07 nM	0.15 nM	–	18 nM	–
COc1cc(N2CCC(N3CC(F)(CO)C3)CC2)c(C)cc1Nc1ncc(Br)c(Nc2ccc3nccnc3c2P(C)(C)=O)n1	0.13 nM	0.1 nM	> 500 nM	18.7 nM	Cmax [5]: 1730 ng/mL; MRT [8]: 6.3 h; half-life [9]: 3.7 h; AUC(0-inf) [10]: 17000 ng·h/mL; AUC(0-t) at 24 h [11]: 16900 ng·h/mL; IC50 (A-431): 808 nM
COCC1(C)CN(C2CCN(c3cc(OC)c(Nc4ncc(Br)c(Nc5ccc6nccnc6c5P(C)(C)=O)n4)cc3C)CC2)C1	0.3 nM	0.81 nM	> 500 nM	22.3 nM	–
COc1cc(N2CCC(N3CCN(C(C)=O)CC3)CC2)c(C)cc1Nc1ncc(Br)c(Nc2ccc3nccnc3c2P(C)(C)=O)n1	0.07 nM	0.12 nM	500 nM	17.7 nM	IC50 (A-431): 578 nM
CCc1cc(Nc2ncc(C(F)(F)F)c(Nc3ccc4nccnc4c3P(C)(C)=O)n2)c(OC)cc1N1CCC(N2CC(N(C)C)C2)CC1	–	–	–	54 nM	IC50 (A-431): 547 nM
COc1cc(N2CCC(N3CC(N(C)C)C3)CC2)c(C)cc1Nc1ncc(SC)c(Nc2ccc3nccnc3c2P(C)(C)=O)n1	0.39 nM	0.05 nM	–	19.7 nM	–
COc1cc(N2CCC(N3CCN(C)CC3)CC2)ccc1Nc1ncc(Cl)c(Nc2ccccc2P(C)(C)=O)n1 [BRIGATINIB]	–	–	–	433 nM	Cmax [5]: 927 ng/mL; half-life [9]: 2.8 h; AUC(0-inf) [10]: 6500 ng·h/mL; AUC(0-t) at 24 h [11]: 6490 ng·h/mL

Continued, in another order:

IC50 [2]	IC50 [12]	IC50 [13]	SMILES	IC50 [1]	further results
0.25 nM	0.12 nM	–	COc1cc(N2CCC(N3CC(N(C)C)C3)CC2)c(C)cc1Nc1ncc(Cl)c(Nc2ccc3nccnc3c2P(C)(C)=O)n1	16.3 nM	–
0.61 nM	0.4 nM	> 500 nM	CCc1cc(Nc2ncc(Cl)c(Nc3ccc4nccnc4c3P(C)(C)=O)n2)c(OC)cc1N1CCC(N2CC(N(C)C)C2)CC1	29.7 nM	–
–	0.12 nM	–	COc1cc(N2CCC(N3C[C@H]4COC[C@H]4C3)CC2)c(C)cc1Nc1ncc(Br)c(Nc2ccc3nccnc3c2P(C)(C)=O)n1	11 nM	Cmax [5]: 1360 ng/mL; MRT [8]: 5.6 h; half-life [9]: 3.3 h; AUC(0-inf) [10]: 11200 ng·h/mL; AUC(0-t) at 24 h [11]: 11200 ng·h/mL; IC50 (A-431): 425 nM
–	0.13 nM	–	COc1cc(N2CCC(N3CC[C@@H](N(C)C)C3)CC2)c(C)cc1Nc1ncc(Br)c(Nc2ccc3nccnc3c2P(C)(C)=O)n1	9 nM	–
0.69 nM	0.06 nM	–	COCC1CN(C2CCN(c3cc(OC)c(Nc4ncc(Br)c(Nc5ccc6nccnc6c5P(C)(C)=O)n4)cc3C)CC2)C1	15 nM	–
0.57 nM	0.34 nM	590 nM	COc1cc(N2CCC(N3CC(CO)C3)CC2)c(C)cc1Nc1ncc(Br)c(Nc2ccc3nccnc3c2P(C)(C)=O)n1	41 nM	–
0.06 nM	0.15 nM	–	COc1cc(N2CCC(N(C)CCN(C)C)CC2)c(C)cc1Nc1ncc(Br)c(Nc2ccc3nccnc3c2P(C)(C)=O)n1	16 nM	IC50 (A-431): 406 nM
